Experimental data: ChEMBL document CHEMBL4325859, “Research advances on anticancer activities of matrine and its derivatives: An updated overview” (Eur J Med Chem, 2019)
≈ marks a conversion by molar mass, not a printed value.

Experiments:
[1] = Antiproliferative activity against human 95-D cells at 1.5 g/L after 12 to 48 hrs by MTT assay relative to control; format: functional
4T1 = assay: Antiproliferative activity against mouse 4T1 cells after 48 hrs by MTT assay; format: functional, cell-based; details: 4T1, 48 h
[2] = target: ATP-dependent translocase ABCB1 (Homo sapiens, UniProt P08183); assay: Reversal of P-gp-mediated drug resistance in human MCF7/ADR cells assessed as increase in adriamycin accumulation at 0.2 mg/ml relative to control; format: cell-based
HepG2 [3] = assay: Antiproliferative activity against human HepG2 cells at 1 mg/ml after 72 hrs by MTT assay relative to control; format: functional
HepG2 [4] = assay: Antiproliferative activity against human HepG2 cells at 0.8 mg/ml after 48 hrs relative to control; format: functional
HepG2 [5] = assay: Antiproliferative activity against human HepG2 cells at 1 mg/ml after 48 hrs relative to control; format: functional
PANC-1 = assay: Antiproliferative activity against human PANC1 cells after 72 hrs by MTT assay; format: functional, cell-based; details: PANC-1, 72 h
BXPC-3 [6] = assay: Induction of apoptosis in human BxPC3 cells at 0.25 mg/ml by flow cytometry (reference value: 2.81%); format: functional
BXPC-3 [7] = assay: Induction of apoptosis in human BxPC3 cells at 1.25 mg/ml by flow cytometry (reference value: 2.81%); format: functional
DU-145 = assay: Growth inhibition of human DU145 cells at 6 g/L after 72 hrs relative to control; format: functional; details: DU-145, 72 h, read-out: GI
CCRF-CEM [8] = assay: Antiproliferative activity against human CCRF-CEM cells after 24 hrs by WST1 assay; format: functional, cell-based
CCRF-CEM [9] = assay: Antiproliferative activity against human CCRF-CEM cells after 48 hrs by WST1 assay; format: functional, cell-based
RPMI-8226 = assay: Induction of apoptosis in human RPMI8226 cells at 500 mg/L after 48 hrs by Annexin V/propidium iodide staining based flow cytometry (reference value: 3.02 +/- 1.19%); format: functional
MM1.S = assay: Growth inhibition of human MM1S cells after 24 hrs; format: functional, cell-based
U-266 = assay: Induction of apoptosis in human U266 cells at 2 g/L after 48 hrs by Annexin V-FITC/propidium iodide staining based flow cytometry (Rvb < 3%); format: functional
RD = assay: Induction of apoptosis in human RD cells at 1 mg/ml after 24 hrs by Annexin V-FITC/propidium iodide staining based flow cytometry relative to control; format: functional
T-24 = assay: Antiproliferative activity against human T24 cells after 48 hrs by CCK8 assay; format: functional, cell-based; details: T-24, 48 h
5637 = assay: Antiproliferative activity against human 5637 cells after 48 hrs by CCK8 assay; format: functional, cell-based; details: Homo sapiens, 5637, 48 h
KYSE-150 cell line = assay: Antiproliferative activity against human KYSE-150 cells assessed as cell viability at 3 mg/ml after 24 hrs by MTT assay relative to control; format: functional; details: KYSE-150, 24 h, read-out: Activity
LoVo = assay: Antiproliferative activity against human LoVo cells after 24 hrs by MTT assay; format: functional, cell-based
HT-29 [10] = assay: Growth inhibition of human HT-29 cells at 2 ml/L after 24 hrs by MTT assay relative to control; format: functional
HT-29 [11] = assay: Growth inhibition of human HT-29 cells at 8 ml/L after 24 hrs by MTT assay relative to control; format: functional
HT-29 [12] = assay: Growth inhibition of human HT-29 cells at 16 ml/L after 24 hrs by MTT assay relative to control; format: functional
HT-29 [13] = assay: Growth inhibition of human HT-29 cells at 2 ml/L after 36 hrs by MTT assay relative to control; format: functional
HT-29 [14] = assay: Growth inhibition of human HT-29 cells at 8 ml/L after 48 hrs by MTT assay relative to control; format: functional
HT-29 [15] = assay: Growth inhibition of human HT-29 cells at 0.5 mg/ml by MTT assay relative to control; format: functional; details: read-out: GI
HT-29 [16] = assay: Synergistic growth inhibition of human HT-29 cells at 0.5 mg/ml cotreated with 2.5 ug/ml irinotecan by MTT assay relative to control; format: functional
HT-29 [17] = assay: Synergistic growth inhibition of human HT-29 cells at 2 mg/ml cotreated with 10 ug/ml irinotecan by MTT assay relative to control; format: functional
SW480 = assay: Antitumor activity against human SW480 cells xenografted in Balb/c mouse assessed as tumor growth inhibition at 30 mg/kg, ip everyday relative to control; format: functional; details: read-out: TGI
UMR108 [18] = assay: Growth inhibition of rat UMR108 cells assessed as cell proliferation at 1 mg/ml after 24 hrs by MTT assay (reference value: 0.405 +/- 0.007%); format: functional; details: UMR108, 24 h, read-out: Activity
UMR108 [19] = assay: Growth inhibition of rat UMR108 cells assessed as cell proliferation at 1 mg/ml after 48 hrs by MTT assay (reference value: 0.404 +/- 0.008%); format: functional; details: UMR108, 48 h, read-out: Activity
UMR108 [20] = assay: Growth inhibition of rat UMR108 cells assessed as cell proliferation at 1.5 mg/ml after 72 hrs by MTT assay (reference value: 0.403 +/- 0.009%); format: functional; details: UMR108, 72 h, read-out: Activity
[21] = Growth inhibition of human GRC1 cells at 1 g/L after 24 hrs by MTT assay relative to control; format: functional; details: read-out: GI
[22] = Growth inhibition of human GRC1 cells at 0.8 g/L after 48 hrs by MTT assay relative to control; format: functional; details: read-out: GI
[23] = Growth inhibition of human GRC1 cells at 1 g/L after 72 hrs by MTT assay relative to control; format: functional; details: read-out: GI
[24] = Growth inhibition of human GRC1 cells at 1.5 g/L after 96 hrs by MTT assay relative to control; format: functional; details: read-out: GI
D341 cell line [25] = assay: Growth inhibition of human D341 cells at 0.5 mg/ml after 72 hrs by CCK8 assay relative to control; format: functional; details: D341, 72 h, read-out: GI
D341 cell line [26] = assay: Growth inhibition of human D341 cells at 1 mg/ml after 72 hrs by CCK8 assay relative to control; format: functional; details: D341, 72 h, read-out: GI
M21 [27] = assay: Growth inhibition of human M21 cells after 48 hrs by MTT assay; format: functional, cell-based; details: M21, 48 h
M21 [28] = assay: Induction of apoptosis in human M21 cells at 0.4 mg/ml after 48 hrs by Annexin V-FITC/propidium iodide staining based flow cytometry relative to control; format: functional
HeLa = assay: Induction of apoptosis in human HeLa cells at 100 ug/ml after 48 hrs by Annexin V-FITC/propidium iodide staining based flow cytometry relative to control; format: functional
C-33-A [29] = assay: Induction of apoptosis in human C33A cells at 25 ug/ml after 48 hrs by Annexin V-FITC/propidium iodide staining based flow cytometry relative to control; format: functional
C-33-A [30] = assay: Induction of apoptosis in human C33A cells at 50 ug/ml after 48 hrs by Annexin V-FITC/propidium iodide staining based flow cytometry relative to control; format: functional
C-33-A [31] = assay: Antiproliferative activity against human C33A cells after 48 hrs by CCK8 assay; format: functional, cell-based

Sequence of ATP-dependent translocase ABCB1 (P08183 whole entry): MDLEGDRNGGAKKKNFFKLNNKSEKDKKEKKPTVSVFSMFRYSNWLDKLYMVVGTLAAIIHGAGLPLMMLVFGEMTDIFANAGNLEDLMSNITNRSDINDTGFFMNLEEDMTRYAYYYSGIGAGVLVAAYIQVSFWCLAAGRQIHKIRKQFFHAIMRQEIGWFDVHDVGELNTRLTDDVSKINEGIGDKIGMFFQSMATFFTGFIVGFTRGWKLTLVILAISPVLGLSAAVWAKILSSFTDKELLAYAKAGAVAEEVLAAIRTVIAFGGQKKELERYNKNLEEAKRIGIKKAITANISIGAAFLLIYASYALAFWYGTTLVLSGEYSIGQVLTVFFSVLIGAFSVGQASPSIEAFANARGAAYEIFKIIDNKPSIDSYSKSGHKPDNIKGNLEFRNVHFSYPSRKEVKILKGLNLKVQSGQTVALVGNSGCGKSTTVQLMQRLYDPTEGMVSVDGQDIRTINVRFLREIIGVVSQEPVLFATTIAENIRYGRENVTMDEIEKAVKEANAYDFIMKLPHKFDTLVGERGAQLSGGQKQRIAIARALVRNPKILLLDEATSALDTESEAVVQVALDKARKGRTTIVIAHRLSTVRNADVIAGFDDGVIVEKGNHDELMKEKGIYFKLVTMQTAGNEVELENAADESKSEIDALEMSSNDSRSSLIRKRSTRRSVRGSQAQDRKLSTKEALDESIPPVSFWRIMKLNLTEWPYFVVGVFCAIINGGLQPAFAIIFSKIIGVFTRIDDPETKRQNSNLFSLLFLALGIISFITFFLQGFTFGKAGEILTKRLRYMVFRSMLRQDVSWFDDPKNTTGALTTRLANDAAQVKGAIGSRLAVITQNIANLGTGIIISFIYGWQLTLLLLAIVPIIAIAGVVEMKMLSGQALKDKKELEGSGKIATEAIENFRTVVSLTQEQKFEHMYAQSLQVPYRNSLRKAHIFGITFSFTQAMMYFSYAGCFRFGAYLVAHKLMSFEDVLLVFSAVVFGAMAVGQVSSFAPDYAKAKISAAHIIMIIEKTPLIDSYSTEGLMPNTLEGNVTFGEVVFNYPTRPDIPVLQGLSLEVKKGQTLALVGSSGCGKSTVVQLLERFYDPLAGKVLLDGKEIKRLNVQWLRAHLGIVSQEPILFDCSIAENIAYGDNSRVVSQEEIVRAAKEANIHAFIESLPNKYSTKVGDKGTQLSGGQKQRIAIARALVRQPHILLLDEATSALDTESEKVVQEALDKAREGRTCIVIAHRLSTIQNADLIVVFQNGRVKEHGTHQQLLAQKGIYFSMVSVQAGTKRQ

For `O=C1CCC[C@@H]2[C@H]3CCCN4CCC[C@@H](CN12)[C@@H]34` [MATRINE], the Activity [1] was 30%, the IC50 (4T1) was 1110 mg/L (≈ 4.47 mM) and the “fold change (FC)” value [2] was 3.56. For the same compound, the Activity (HepG2 [3]) was 18.25%, the Activity (HepG2 [4]) was 44.03% and the Activity (HepG2 [5]) was 48.39%. The IC50 (PANC-1) was 3.66 mM, the Activity (BXPC-3 [6]) was 9.9% and the Activity (BXPC-3 [7]) was 33.67%. The inhibition of growth at 6000 µg/mL (DU-145) was 90%, the IC50 (CCRF-CEM [8]) was 11.7 mM and the IC50 (CCRF-CEM [9]) was 9.67 mM. It also gave an Activity (RPMI-8226) of 9.75%, an IC50 (MM1.S) of 4.95 mM and an Activity (U-266) of 71.05%. It also gave an Activity (RD) of 26.5%, an IC50 (T-24) of 4.6 mM and an IC50 5637 of 4.48 mM. The viability at 3000 µg/mL (KYSE-150 cell line) was 29.6%, the IC50 (LoVo) was 4.63 mM and the “growth inhibition (GI)” value (HT-29 [10]) was 9.2%. The “growth inhibition (GI)” value (HT-29 [11]) was 45.96%, the “growth inhibition (GI)” value (HT-29 [12]) was 59.35% and the “growth inhibition (GI)” value (HT-29 [13]) was 22.06%. The “growth inhibition (GI)” value (HT-29 [14]) was 68.29%, the inhibition of growth at 500 µg/mL (HT-29 [15]) was 26.9% and the “growth inhibition (GI)” value (HT-29 [16]) was 57.25%. For the same compound, the “growth inhibition (GI)” value (HT-29 [17]) was 95.29%, the inhibition in vivo at 30 mg/kg (SW480) was 13.7% and the growth at 1000 µg/mL (UMR108 [18]) was 0.298%. The growth at 1000 µg/mL (UMR108 [19]) was 0.249%, the growth at 1500 µg/mL (UMR108 [20]) was 0.147% and the inhibition of growth at 1000 µg/mL [21] was 23.6%. For the same compound, the inhibition of growth at 800 µg/mL [22] was 23.1%, the inhibition of growth at 1000 µg/mL [23] was 29.2% and the inhibition of growth at 1500 µg/mL [24] was 60.2%. It also gave an inhibition of growth at 500 µg/mL (D341 cell line [25]) of 12.7%, an inhibition of growth at 1000 µg/mL (D341 cell line [26]) of 28.3% and an IC50 (M21 [27]) of 3.1 mM. For the same compound, the Activity (M21 [28]) was 34.8%, the Activity (HeLa) was 38.41% and the Activity (C-33-A [29]) was 5.31%. For the same compound, the Activity (C-33-A [30]) was 15.37% and the IC50 (C-33-A [31]) was 5.92 mM.
